These results are taken from article PMC3739731, “Pharmacological Inhibition of polysialyltransferase ST8SiaII Modulates Tumour Cell Migration” (PLoS ONE, 2013).

The target of test [1] is T1, ST8SiaII (Homo sapiens, UniProt Q92186).
T1 construct: gene ST8SIA2
T1 sequence (Q92186 1-375): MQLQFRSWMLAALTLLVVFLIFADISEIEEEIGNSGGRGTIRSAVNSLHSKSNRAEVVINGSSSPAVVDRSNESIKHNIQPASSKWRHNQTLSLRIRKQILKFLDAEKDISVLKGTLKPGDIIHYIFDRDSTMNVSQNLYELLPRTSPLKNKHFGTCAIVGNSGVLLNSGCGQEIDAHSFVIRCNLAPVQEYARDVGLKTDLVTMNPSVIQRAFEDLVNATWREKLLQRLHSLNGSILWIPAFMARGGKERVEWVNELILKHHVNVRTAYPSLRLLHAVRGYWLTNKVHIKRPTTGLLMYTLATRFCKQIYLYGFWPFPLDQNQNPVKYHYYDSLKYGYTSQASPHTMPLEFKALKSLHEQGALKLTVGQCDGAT
In words: HPLC assay of DMB-DP3 polysialylation with recombinant human ST8SiaII, Dixon plot. It is filed as biochemical.

For test [2], the target named is T1, ST8SiaII. The experiment in a line: HPLC-fluorescence enzyme kinetics, Lineweaver-Burk (Km). Format: biochemical.

As for `Nc1ccn([C@@H]2O[C@H](COP(=O)(O)O)[C@@H](O)[C@H]2O)c(=O)n1` [CMP], the Ki (usually a dissociation constant, usually derived from enzyme kinetics or from competition with a known ligand) at ST8SiaII [1] came out at 10 µM.

Regarding DMB-DP3, the Km (commonly the substrate concentration at which the rate is half of its maximum) on ST8SiaII [2] was 38.9 µM.
